The values below are quoted from earlier work in US20190307762A1, “METHODS AND COMPOSITIONS FOR THE TREATMENT OF TRAUMA AND STRESSOR-RELATED DISORDERS” (priority 2016, published 2019).

For data set [1] the following is noted: for Equivalent amount: dose equivalent to 20 mg hydrocortisone; for Hydrocortisone equivalent (1 mg of the glucocorticoid corresponds to the listed amount in mg of hydrocortisone): per 1 mg of the glucocorticoid.
Another data set concerns the target cytochrome P-450 3A4 (Homo sapiens, UniProt P08684).
In data set [2] the test system is generalized anxiety disorders. The following applies: versus placebo and alprazolam.
The conditions of data set [3]: in vivo.
Data set [4] deals with histamine (H1.H2), serotonin (5-HT2), dopamine (D2.D1), adrenergic (al) receptors. The following applies: in vitro; decreasing order H1.H2, 5-HT2, D2.D1, al.
Data set [5] relates to serotonin (5-HT) or noradrenaline reuptake.
The next data set concerns neurological tissue. The following applies: preclinical; linked to binding to sigma one receptors.
The target in a further data set is sigma 2 receptors (Homo sapiens, UniProt Q5BJF2).
Another data set deals with cholinergic receptors. The following applies: in vitro.

sigma 2 receptors, sequence (Q5BJF2 whole entry): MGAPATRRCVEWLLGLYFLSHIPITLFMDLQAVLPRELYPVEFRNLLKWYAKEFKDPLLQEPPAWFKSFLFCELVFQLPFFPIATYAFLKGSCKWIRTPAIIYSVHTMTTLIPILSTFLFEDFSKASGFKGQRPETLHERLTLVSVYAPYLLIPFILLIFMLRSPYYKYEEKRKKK
cytochrome P-450 3A4, sequence (P08684 whole entry): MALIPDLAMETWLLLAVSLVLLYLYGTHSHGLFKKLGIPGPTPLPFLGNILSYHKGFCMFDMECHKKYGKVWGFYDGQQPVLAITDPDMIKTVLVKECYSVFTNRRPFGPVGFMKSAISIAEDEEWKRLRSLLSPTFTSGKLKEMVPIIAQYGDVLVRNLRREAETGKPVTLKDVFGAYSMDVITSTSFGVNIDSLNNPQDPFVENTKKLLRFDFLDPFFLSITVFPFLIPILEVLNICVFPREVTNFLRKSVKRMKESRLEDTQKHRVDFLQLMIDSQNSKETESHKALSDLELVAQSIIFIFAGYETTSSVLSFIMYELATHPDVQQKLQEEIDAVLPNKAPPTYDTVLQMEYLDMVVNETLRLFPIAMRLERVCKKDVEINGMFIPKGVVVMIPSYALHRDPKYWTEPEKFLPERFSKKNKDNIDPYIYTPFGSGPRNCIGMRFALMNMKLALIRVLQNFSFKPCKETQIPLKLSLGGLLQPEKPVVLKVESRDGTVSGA

For `C[C@H]1C[C@H]2[C@@H]3CCC4=CC(=O)C=C[C@]4(C)[C@@]3(F)[C@@H](O)C[C@]2(C)[C@@]1(O)C(=O)CO` [Betarnethasone], in data set [1], the “Equivalent amount” value is reported as 0.75 mg and the “Hydrocortisone equivalent (1 mg of the glucocorticoid corresponds to the listed amount in mg of hydrocortisone)” value (“Hydrocortisone equivalent” for short) is recorded as 26.66 mg.
Turning to `CC(=O)OCC(=O)[C@@]1(O)CC[C@H]2[C@@H]3CCC4=CC(=O)CC[C@]4(C)[C@H]3C(=O)C[C@@]21C` [Cortisone acetate], in [1], the “Equivalent amount” value is on record as 25 mg and the “Hydrocortisone equivalent” value is 0.8 mg.
For `C[C@]12CCC(=O)C=C1CC[C@@H]1[C@@H]2[C@@H](O)C[C@@]2(C)[C@H]1CC[C@]2(O)C(=O)CO` [Hydrocortisone], in [1], the “Equivalent amount” value was 20 mg and the “Hydrocortisone equivalent” value is 1 mg.
For `C[C@@H]1C[C@H]2[C@@H]3C[C@H](F)C4=CC(=O)C=C[C@]4(C)[C@H]3[C@@H](O)C[C@]2(C)[C@@]1(O)C(=O)CO` [Pararnethasone], in data set [1], the “Equivalent amount” value was 2 mg and the “Hydrocortisone equivalent” value is 10 mg.
Turning to `C[C@]12C=CC(=O)C=C1CC[C@@H]1[C@@H]2[C@@H](O)C[C@@]2(C)[C@H]1CC[C@]2(O)C(=O)CO` [Prednisolone], in data set [1], the “Equivalent amount” value was 5 mg and the “Hydrocortisone equivalent” value is listed as 4 mg.
For `C[C@]12C=CC(=O)C=C1CC[C@H]1[C@@H]3C[C@@H](O)[C@](O)(C(=O)CO)[C@@]3(C)C[C@H](O)[C@@]12F` [Triamcinolone], in data set [1], the “Equivalent amount” value is on record as 4 mg and the “Hydrocortisone equivalent” value was 5 mg.
For the molecule `OCCN1CCN(CCCN2c3ccccc3C=Cc3ccccc32)CC1` [opipramol], in the data set with sigma, the sigma ligand strength result is “strong sigma ligand”. In addition, the “levels of cGMP” value in the data set with cGMP was “induces increased levels of cGMP”. The CYP substrate entry at cytochrome P-450 3A4 was “CYP3A substrate”. Moreover, the anxiolytic efficacy result in [2] is “superiority over placebo and similar efficacy to alprazolam”. Also, in data set [3], the “risk of drug dependence” value is “no risk of drug dependence”. Moreover, the receptor blockade result in data set [4] is listed as “blocks the following receptors in decreasing order”; with cholinergic receptors, “very weakly”. Further, the reuptake inhibiting properties entry in data set [5] is “without reuptake inhibiting properties”. Further, in the data set with neurological tissue, the “protection against glutamate mediated toxicity” value is on record as “ability to protect neurological tissue against the effects of glutamate mediated toxicity”. For the same molecule, the “signaling at sigma 2 receptors” value at sigma 2 receptors is listed as “down regulate signaling at sigma 2 receptors”.
